# Source: patent EP0869800B1, “ACYLGLYCINE- AND ZINC SALT-BASED ANTIBACTERIAL COMPOUND” (PIERRE FABRE DERMO-COSMETIQUE, priority 1995, dated 1997)
# Experiments:
# [1] = system: Staphylococcus aureus 6538 P; assay: Minimal inhibitory concentration (CMI), serial half dilutions in broth on microplate; assay type: cell-based; details: product alone; 24 h at 32°C; 10^6 germes par ml
# Procedure: • . souche: Staphylococcus aureus 6538 P • milieu de culture : • . bouillon et gélose trypticase soja (Biomérieux) • . bouillon Trypticase soja + 10% Tween 80. • appareillage : • . microplaques stériles Nunc R Nunclon à 96 puits • . eau distillée stérile • . tubes à essais stériles • . étuve à 32°C (Jouan) • . spectrophotomètre PRIM et cuves adaptées • . billes de verres stériles • produits : Les solutions-mères des produits cités ci-dessous ont été préparés comme suit : • . Zn SO 4: solution aqueuse à 5% • . n-octanoyl-glycine : solution à 1% dans 30% butylène glycol puis chauffage jusqu'à dissolution homogène. • méthodes : • CMI : Concentration Minimale Inhibitrice Une distribution de 100 µl de bouillon Trypticase soja est réalisée dans chaque cupule de la microplaque stérile A. Une distribution de 100 µl des différents produits a lieu dans une cupule (on est alors à 50% d'actif) (une cupule par produit). Une série de dilutions sériées au demi est ensuite réalisée sur microplaque. Un témoin stérilité du milieu et un autre témoin de la vigueur de la souche sont réalisés en parallèle sur la microplaque. […]
# [2] = system: Staphylococcus aureus 6538 P; assay: Study of the association by the checkerboard method on microplate (CMI in association, FiC, FiC Index); assay type: cell-based; details: for FiC: CMI of the product in association / CMI of the product alone
# Procedure: • . souche: Staphylococcus aureus 6538 P • milieu de culture : • . bouillon et gélose trypticase soja (Biomérieux) • . bouillon Trypticase soja + 10% Tween 80. • appareillage : • . microplaques stériles Nunc R Nunclon à 96 puits • . eau distillée stérile • . tubes à essais stériles • . étuve à 32°C (Jouan) • . spectrophotomètre PRIM et cuves adaptées • . billes de verres stériles • produits : Les solutions-mères des produits cités ci-dessous ont été préparés comme suit : • . Zn SO 4: solution aqueuse à 5% • . n-octanoyl-glycine : solution à 1% dans 30% butylène glycol puis chauffage jusqu'à dissolution homogène. • méthodes : • CMI : Concentration Minimale Inhibitrice Une distribution de 100 µl de bouillon Trypticase soja est réalisée dans chaque cupule de la microplaque stérile A. Une distribution de 100 µl des différents produits a lieu dans une cupule (on est alors à 50% d'actif) (une cupule par produit). Une série de dilutions sériées au demi est ensuite réalisée sur microplaque. Un témoin stérilité du milieu et un autre témoin de la vigueur de la souche sont réalisés en parallèle sur la microplaque. L'ensemencement de la microplaque (A) a lieu sous la hotte après préparation de l'inoculum bactérien comme suit : Les souches ayant été préalablement repiquées la veille sur gélose Trypticase soja, un inoculum 10^8 germes/ml est dispersé dans l'eau distillée stérile puis agité au vortex. Les billes de verre assurant une bonne dispersion des souches, la mesure de la densité optique permet de préparer un inoculum adéquat par rapport à un étalonnage pré-établi et validé. La répartition de la souche a lieu dans une deuxième microplaque (B) stérile par distribution de 100 µl d'inoculum par microcupule. L'ensemencement a lieu par un repiquage de la microplaque (B) vers la microplaque (A), il se réalise ainsi une dilution au 1/100 de l'inoculum : la microplaque A contenant alors 10^6 germes par ml, peut être mise à l'étuve 24 h à 32°C. […]
Structure (SMILES),CMI Seuls [1],FiC [2],"CMI Associés ([2]; product in association (checkerboard), incubation at 32°C)"
"O=S(=O)([O-])[O-].[Zn+2] [Zn SO 4, sulfate de zinc]","0,15","0,20","0,03"
"CCCCCCCC(=O)NCC(=O)O [n octanoyl glycine, n-octanoyl-glycine]","0,25","0,5",–
